# Activity calls are given as the source filed them. No cut-off for these calls is given here.
# Assays:
# Staphylococcus aureus [1] = experiment: Antibacterial activity against methicillin-sensitive Staphylococcus aureus ATCC 25923 at 256 ug/ml after 24 hrs by disc diffusion method; type: functional, organism-based
# Staphylococcus aureus [2] = experiment: Antibacterial activity against methicillin-resistant Staphylococcus aureus ATCC 43300 at 256 ug/ml after 24 hrs by disc diffusion method; type: functional, organism-based
# Staphylococcus aureus [3] = experiment: Antibacterial activity against methicillin-sensitive Staphylococcus aureus ATCC 25923 after 24 hrs by microdilution method; type: functional
# Staphylococcus aureus [4] = experiment: Antibacterial activity against methicillin-sensitive Staphylococcus aureus ATCC 25923 at 30 ug/ml after 24 hrs by disc diffusion method; type: functional; conditions: ATCC 25923, 24 h, read-out: DIZ
# Staphylococcus aureus [5] = experiment: Antibacterial activity against methicillin-resistant Staphylococcus aureus ATCC 43300 after 24 hrs by microdilution method; type: functional
# Staphylococcus aureus [6] = experiment: Antibacterial activity against methicillin-resistant Staphylococcus aureus ATCC 43300 at 30 ug/ml after 24 hrs by disc diffusion method; type: functional; conditions: ATCC 43300, 24 h, read-out: DIZ
# Staphylococcus aureus [7] = experiment: Antibacterial activity against methicillin-sensitive Staphylococcus aureus ATCC 25923 at 2 ug/ml after 24 hrs by disc diffusion method; type: functional; conditions: ATCC 25923, 24 h, read-out: DIZ
# Staphylococcus aureus [8] = experiment: Antibacterial activity against methicillin-resistant Staphylococcus aureus ATCC 43300 at 2 ug/disc after 24 hrs by disc diffusion method; type: functional, organism-based
# Staphylococcus aureus [9] = experiment: Antibacterial activity against methicillin-resistant Staphylococcus aureus ATCC 43300 after 24 hrs by microdilution method in presence of non-beta lactam antibiotic Doxycycline; type: functional
# Staphylococcus aureus [10] = experiment: Antibacterial activity against methicillin-sensitive Staphylococcus aureus ATCC 25923 at 102.4 mg/ml after 24 hrs by disc diffusion method; type: functional; conditions: ATCC 25923, 24 h, read-out: DIZ
# Staphylococcus aureus [11] = experiment: Antibacterial activity against methicillin-resistant Staphylococcus aureus ATCC 43300 at 102.4 mg/ml after 24 hrs by disc diffusion method; type: functional; conditions: ATCC 43300, 24 h, read-out: DIZ
# Staphylococcus aureus [12] = experiment: Antibacterial activity against methicillin-resistant Staphylococcus aureus ATCC 43300 after 24 hrs by microdilution method in presence of non-beta lactam antibiotic ciprofloxacin; type: functional
# Staphylococcus aureus [13] = experiment: Antibacterial activity against methicillin-sensitive Staphylococcus aureus ATCC 25923 after 24 hrs by microdilution method in presence of non-beta lactam antibiotic Doxycycline; type: functional
# Staphylococcus aureus [14] = experiment: Antibacterial activity against methicillin-sensitive Staphylococcus aureus ATCC 25923 after 24 hrs by microdilution method in presence of non-beta lactam antibiotic ciprofloxacin; type: functional
# Staphylococcus aureus [15] = experiment: Antibacterial activity against methicillin-resistant Staphylococcus aureus ATCC 43300 after 24 hrs by microdilution method in presence of non-beta lactam antibiotic gentamycin; type: functional
# Staphylococcus aureus [16] = experiment: Antibacterial activity against methicillin-sensitive Staphylococcus aureus ATCC 25923 after 24 hrs by microdilution method in presence of non-beta lactam antibiotic gentamycin; type: functional
# Staphylococcus aureus [17] = experiment: Antibacterial activity against methicillin-sensitive Staphylococcus aureus ATCC 25923 at 15 ug/ml after 24 hrs by disc diffusion method; type: functional; conditions: ATCC 25923, 24 h, read-out: DIZ
# Staphylococcus aureus [18] = experiment: Antibacterial activity against methicillin-resistant Staphylococcus aureus ATCC 43300 at 15 ug/disc after 24 hrs by disc diffusion method; type: functional, organism-based
# Staphylococcus aureus [19] = experiment: microbe, parasite or virus in culture; conditions: ATCC 43300, 24 h, read-out: DIZ
# Description: Antibacterial activity against methicillin-resistant Staphylococcus aureus ATCC 43300 at 5 ug/ml after 24 hrs by disc diffusion method
# Staphylococcus aureus [20] = experiment: microbe, parasite or virus in culture; conditions: ATCC 25923, 24 h, read-out: DIZ
# Description: Antibacterial activity against methicillin-sensitive Staphylococcus aureus ATCC 25923 at 5 ug/ml after 24 hrs by disc diffusion method
Compound,diameter of the inhibition zone (DIZ) (Staphylococcus aureus [1]),diameter of the inhibition zone (DIZ) (Staphylococcus aureus [2]),further results
COc1ccc(/C=C/C(=O)c2ccccc2O)cc1OC,inactive,inactive,
COc1ccccc1/C=C/C(=O)c1ccccc1O,inactive,inactive,
COc1cccc(/C=C/C(=O)c2ccc(Br)cc2)c1OC,inactive,inactive,
COc1cccc(/C=C/C(=O)c2ccccc2)c1OC,inactive,inactive,
C[C@H]1c2cccc(O)c2C(=O)C2=C(O)[C@]3(O)C(=O)C(C(N)=O)=C(O)[C@@H](N(C)C)[C@@H]3[C@@H](O)[C@@H]21.O [DOXYCYCLINE],,,"MIC (Staphylococcus aureus [3]; ATCC 25923, 24 h): 8 µg/mL; zone of inhibition at 30 µg/mL (Staphylococcus aureus [4]): 27 mm; MIC (Staphylococcus aureus [5]; ATCC 43300, 24 h): 4 µg/mL; zone of inhibition at 30 µg/mL (Staphylococcus aureus [6]): 27 mm"
COc1ccc(C(=O)/C=C/c2ccccc2)c(O)c1,inactive,inactive,
CCC[C@@H]1C[C@@H](C(=O)N[C@@H]([C@H]2O[C@H](SC)[C@H](O)[C@@H](O)[C@H]2O)[C@H](C)Cl)N(C)C1 [CLINDAMYCIN],,,zone of inhibition at 2 µg/mL (Staphylococcus aureus [7]): 24 mm; diameter of the inhibition zone (DIZ) (Staphylococcus aureus [8]): inactive
COc1ccccc1/C=C/C(=O)c1ccccc1,inactive,inactive,
COc1ccc(C(=O)/C=C/c2ccc(OC)cc2OC)c(O)c1,inactive,inactive,
COc1ccc(C(=O)/C=C/c2ccc(Cl)c(Cl)c2)c(O)c1,inactive,inactive,
COc1ccc(/C=C/C(=O)c2ccccc2O)c(OC)c1,inactive,inactive,
COc1ccc2cc3[n+](cc2c1OC)CCc1cc2c(cc1-3)OCO2 [BERBERINE],,,"MIC (Staphylococcus aureus [5]; ATCC 43300, 24 h): 128 µg/mL"
COc1ccc(/C=C/C(=O)c2ccc(OC)cc2O)cc1,inactive,inactive,
COc1ccc(/C=C/C(=O)c2ccc(Br)cc2)cc1OC,inactive,inactive,
COc1ccc(C(=O)/C=C/c2ccc(OC)c(OC)c2)c(O)c1,inactive,inactive,
COc1ccc(/C=C/C(=O)c2ccccc2)cc1OC,inactive,inactive,
O=C(/C=C/c1ccc(Cl)cc1)c1ccccc1O,inactive,inactive,
O=C(/C=C/c1ccccc1O)c1ccccc1,,,"fractional inhibitory concentration index (FICI) (Staphylococcus aureus [9]): 0.15; MIC (Staphylococcus aureus [3]; ATCC 25923, 24 h): 32 µg/mL; zone of inhibition at 102400 µg/mL (Staphylococcus aureus [10]): 11 mm; zone of inhibition at 102400 µg/mL (Staphylococcus aureus [11]): 11 mm; fractional inhibitory concentration index (FICI) (Staphylococcus aureus [12]): 0.75; fractional inhibitory concentration index (FICI) (Staphylococcus aureus [13]): 0.31; MIC (Staphylococcus aureus [5]; ATCC 43300, 24 h): 64 µg/mL"
O=C(/C=C/c1ccccc1)c1ccccc1O,inactive,inactive,

Compound,diameter of the inhibition zone (DIZ) (Staphylococcus aureus [1]),diameter of the inhibition zone (DIZ) (Staphylococcus aureus [2]),further results
COc1ccc(/C=C/C(=O)c2ccccc2)cc1,inactive,inactive,
COc1ccc(/C=C/C(=O)c2ccccc2O)cc1,inactive,inactive,
O=C(/C=C/c1ccccc1O)c1ccccc1O,,,"fractional inhibitory concentration index (FICI) (Staphylococcus aureus [9]): 0.15; MIC (Staphylococcus aureus [3]; ATCC 25923, 24 h): 64 µg/mL; zone of inhibition at 102400 µg/mL (Staphylococcus aureus [10]): 14 mm; zone of inhibition at 102400 µg/mL (Staphylococcus aureus [11]): 14 mm; fractional inhibitory concentration index (FICI) (Staphylococcus aureus [14]): 1.5; fractional inhibitory concentration index (FICI) (Staphylococcus aureus [12]): 0.62; fractional inhibitory concentration index (FICI) (Staphylococcus aureus [15]): 0.5; fractional inhibitory concentration index (FICI) (Staphylococcus aureus [13]): 0.25; MIC (Staphylococcus aureus [5]; ATCC 43300, 24 h): 64 µg/mL; fractional inhibitory concentration index (FICI) (Staphylococcus aureus [16]): 0.36"
GENTAMICIN,,,MIC (Staphylococcus aureus [3]): 1 µg/mL; MIC (Staphylococcus aureus [5]): 4 µg/mL
CC[C@H]1OC(=O)[C@H](C)[C@@H](O[C@H]2C[C@@](C)(OC)[C@@H](O)[C@H](C)O2)[C@H](C)[C@@H](O[C@@H]2O[C@H](C)C[C@H](N(C)C)[C@H]2O)[C@](C)(O)C[C@@H](C)C(=O)[C@H](C)[C@@H](O)[C@]1(C)O [ERYTHROMYCIN],,,zone of inhibition at 15 µg/mL (Staphylococcus aureus [17]): 25 mm; diameter of the inhibition zone (DIZ) (Staphylococcus aureus [18]): inactive
CN[C@H](CC(C)C)C(=O)N[C@H]1C(=O)N[C@@H](CC(N)=O)C(=O)N[C@H]2C(=O)N[C@H]3C(=O)N[C@H](C(=O)N[C@H](C(=O)O)c4cc(O)cc(O)c4-c4cc3ccc4O)[C@H](O)c3ccc(c(Cl)c3)Oc3cc2cc(c3O[C@@H]2O[C@H](CO)[C@@H](O)[C@H](O)[C@H]2O[C@H]2C[C@](C)(N)[C@H](O)[C@H](C)O2)Oc2ccc(cc2Cl)[C@H]1O [VANCOMYCIN],,,"zone of inhibition at 30 µg/mL (Staphylococcus aureus [4]): 17 mm; MIC (Staphylococcus aureus [5]; ATCC 43300, 24 h): 8 µg/mL; zone of inhibition at 30 µg/mL (Staphylococcus aureus [6]): 16 mm"
O=C(/C=C/c1ccc(Cl)c(Cl)c1)c1ccccc1O,inactive,inactive,
COc1ccc(C(=O)/C=C/c2ccc(Cl)cc2)c(O)c1,inactive,inactive,
O=C(/C=C/c1ccccc1)c1ccccc1,inactive,inactive,
COc1cccc(/C=C/C(=O)c2ccc(Br)cc2)c1,inactive,inactive,
COc1ccc(/C=C/C(=O)c2ccc(Br)cc2)cc1,inactive,inactive,
COc1cc(/C=C/C(=O)c2ccccc2O)cc(OC)c1OC,inactive,inactive,
O=C(/C=C/c1ccccc1)c1ccc(Br)cc1,inactive,inactive,
O=C(O)c1cn(C2CC2)c2cc(N3CCNCC3)c(F)cc2c1=O [CIPROFLOXACIN],,,"MIC (Staphylococcus aureus [3]; ATCC 25923, 24 h): 0.25 µg/mL; zone of inhibition at 5 µg/mL (Staphylococcus aureus [19]): 21 mm; zone of inhibition at 5 µg/mL (Staphylococcus aureus [20]): 27 mm; MIC (Staphylococcus aureus [5]; ATCC 43300, 24 h): 0.5 µg/mL"
O=C(N[C@H](CO)[C@H](O)c1ccc([N+](=O)[O-])cc1)C(Cl)Cl [CHLORAMPHENICOL],,,zone of inhibition at 30 µg/mL (Staphylococcus aureus [4]): 25 mm; zone of inhibition at 30 µg/mL (Staphylococcus aureus [6]): 26 mm
COc1ccccc1/C=C/C(=O)c1ccc(Br)cc1,inactive,inactive,
O=C(/C=C/c1ccc(O)cc1)c1ccccc1 [4-HYDROXYCHALCONE],,,"fractional inhibitory concentration index (FICI) (Staphylococcus aureus [9]): 0.62; MIC (Staphylococcus aureus [3]; ATCC 25923, 24 h): 64 µg/mL; zone of inhibition at 102400 µg/mL (Staphylococcus aureus [10]): 10 mm; zone of inhibition at 102400 µg/mL (Staphylococcus aureus [11]): 9 mm; fractional inhibitory concentration index (FICI) (Staphylococcus aureus [14]): 0.31; fractional inhibitory concentration index (FICI) (Staphylococcus aureus [12]): 0.25; MIC (Staphylococcus aureus [5]; ATCC 43300, 24 h): 32 µg/mL"
O=C(/C=C/c1ccccc1O)c1ccc(Br)cc1,,,"fractional inhibitory concentration index (FICI) (Staphylococcus aureus [9]): 0.62; MIC (Staphylococcus aureus [3]; ATCC 25923, 24 h): 32 µg/mL; zone of inhibition at 102400 µg/mL (Staphylococcus aureus [10]): 13 mm; zone of inhibition at 102400 µg/mL (Staphylococcus aureus [11]): 13 mm; fractional inhibitory concentration index (FICI) (Staphylococcus aureus [13]): 0.37; MIC (Staphylococcus aureus [5]; ATCC 43300, 24 h): 64 µg/mL"
COc1ccc(C(=O)/C=C/c2cc(OC)c(OC)c(OC)c2)c(O)c1,inactive,inactive,
